Test results reported in patent US20160257697A1, “THIOPHENE-SUBSTITUTED TETRACYCLIC COMPOUNDS AND METHODS OFUSE THEREOF FOR THE TREATMENT OF VIRAL DISEASES” (priority 2013, published 2016).
Where two headings read alike, the source gives them in different places.

How the values were obtained:
Assay in all cases: microbe, parasite or virus in culture
Format in all cases: cell-based, Hepatitis C virus (HCV)
HCV replicon 1B = details: Replicon Assay B
HCV replicon 1AQ30D = details: Replicon Assay B
HCV replicon 1A = details: Replicon Assay A
Summary of the method: (§1)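 Cells seeded 2000/well + compound; 0.5% DMSO, 5% FBS; harvest day 3, lyse. Multiplex TaqMan RT-PCR for replicon (Neo probe) and cyclophilin RNA; amounts from Ct vs log(ng) linear regression of replicon total RNA standards.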

HCV replicon 1AY93H = details: Replicon Assay A
Summary of the method: as §1

HCV replicon 2B = details: Replicon Assay A
Summary of the method: as §1

[1] = read-out: 1A Q30D IC50, replicon 1AQ30D
[2] = read-out: 1A Y93H IC50, replicon 1AY93H
[3] = Hepatitis C virus, HCV replicon 1B
[4] = Hepatitis C virus, read-out: 1A Q30D IC50, HCV replicon 1A Q30D
[5] = read-out: 1A Y93H IC50, HCV replicon 1A Y93H
[6] = read-out: 2B IC50, HCV replicon 2B
[7] = Hepatitis C virus, read-out: 1A Q30D IC50 (nM), replicon 1AQ30D
[8] = Hepatitis C virus, read-out: 1A Y93H IC50 (nM), replicon 1AY93H
[9] = Hepatitis C virus, read-out: 2B IC50 (nM), replicon 2B
[10] = read-out: 1A Q30D IC50, HCV replicon 1A Q30D

Structure (SMILES) | IC50 (HCV replicon 1B; replicon 1B) | IC50 (HCV replicon 1AQ30D; [1]) | IC50 (HCV replicon 1A; replicon 1A) | IC50 (HCV replicon 1AY93H; [2]) | IC50 (HCV replicon 2B; read-out: 2B IC50, replicon 2B) | also measured
COC(=O)NC(C(=O)N1CCC[C@H]1c1ncc(-c2ccc3c(c2)cc2n3C(c3ccc(C4CC4)s3)Oc3cc(-c4cnc([C@@H]5CCCN5C(=O)[C@@H](NC(=O)OC)C(C)C)[nH]4)cc(F)c3-2)[nH]1)C1CCO[C@H](C)C1 (single isomer, unassigned) [Compound 136] | 1.7 pM | 0.9 nM | 1.8 pM | 0.2 nM | 0.23 nM | –
COC(=O)NC(C(=O)N1CCC[C@H]1c1ncc(-c2cc(F)c3c(c2)OC(c2ccc(C4CC4)s2)n2c-3cc3cc(-c4cnc([C@@H]5CCCN5C(=O)[C@@H](NC(=O)OC)C(C)C)[nH]4)ccc32)[nH]1)C1CCOC(C)(C)C1 (single isomer, unassigned) [Compound 215] | 3.2 pM | 0.017 nM | 3.1 pM | 0.005 nM | 0.01 nM | –
CCc1ccc(C2Oc3cc(-c4cnc([C@@H]5CCCN5C(=O)[C@@H](NC(=O)OC)C(C)C)[nH]4)cc(C)c3-c3cc4cc(-c5cnc([C@@H]6CCCN6C(=O)C(NC(=O)OC)C6C[C@@H](C)O[C@@H](C)C6)[nH]5)ccc4n32)s1 (single isomer, unassigned) [Compound 543] | – | – | – | – | – | IC50 (HCV replicon 1B; [3]): 8.46 pM; IC50 (HCV replicon 1AQ30D; [4]): 0.311 nM; IC50 (HCV replicon 1A; Hepatitis C virus, HCV replicon 1A): 5.43 pM; IC50 (HCV replicon 1AY93H; [5]): 0.0394 nM; IC50 (HCV replicon 2B; [6]): 0.0111 nM
COC(=O)NC(C(=O)N1CCC[C@H]1c1ncc(-c2ccc3c(c2)cc2n3C(c3cc4ccccc4s3)Oc3cc(-c4cnc([C@@H]5CCCN5C(=O)[C@@H](NC(=O)OC)C5CCOCC5)[nH]4)cc(F)c3-2)[nH]1)C(C)(C)F (single isomer, unassigned) [Compound 185] | 2.6 pM | 2.95 nM | 4.6 pM | 2.4 nM | 1.35 nM | –
COC(=O)NC(C(=O)N1CCC[C@H]1c1ncc(-c2ccc3c(c2)cc2n3C(c3ccc(C4CC4)s3)Oc3cc(-c4cnc([C@@H]5C[C@H]6C[C@H]6N5C(=O)[C@@H](NC(=O)OC)C(C)C)[nH]4)cc(F)c3-2)[nH]1)C1C[C@@H](C)O[C@@H](C)C1 (single isomer, unassigned) [Compound 538] | – | – | – | – | – | IC50 (HCV replicon 1B; [3]): 3.26 pM; IC50 (HCV replicon 1AQ30D; [4]): 0.136 nM; IC50 (HCV replicon 1A; HCV replicon 1A): 4.7 pM; IC50 (HCV replicon 1AY93H; [5]): 0.00703 nM; IC50 (HCV replicon 2B; [6]): 0.0513 nM
COC(=O)NC(C(=O)N1[C@@H]2C[C@@H]2C[C@H]1c1ncc(-c2ccc3c(c2)cc2n3C(c3ccc(C4CC4)s3)Oc3cc(-c4cnc([C@@H]5CCCN5C(=O)[C@@H](NC(=O)OC)C(C)C)[nH]4)cc(F)c3-2)[nH]1)C1C[C@@H](C)O[C@@H](C)C1 (single isomer, unassigned) [Compound 272] | 3.3 pM | 2.39 nM | 2.7 pM | 1 nM | 2.75 nM | –
COC(=O)NC(C(=O)N1CCC[C@H]1c1ncc(-c2cc(F)c3c(c2)OC(c2ccc(C4CC4)s2)n2c-3cc3cc(-c4cnc([C@@H]5CCCN5C(=O)[C@@H](NC(=O)OC)C(C)C)[nH]4)ccc32)[nH]1)C1CCOC(C)(C)C1 (single isomer, unassigned) [Compound 216] | 3.3 pM | 1.03 nM | 1.7 pM | 0.18 nM | 0.31 nM | –
COC(=O)NC(C(=O)N1CCC[C@H]1c1ncc(-c2cc(F)c3c(c2)OC(c2ccc(C4CCC4)s2)n2c-3cc3cc(-c4cnc([C@@H]5CCCN5C(=O)[C@@H](NC(=O)OC)C5CCOCC5)[nH]4)ccc32)[nH]1)C(C)(C)F (single isomer, unassigned) [Compound 251] | 2.5 pM | 0.4 nM | 1.2 pM | 0.06 nM | 0.1 nM | –
COC(=O)N[C@H](C(=O)N1CCC[C@H]1c1ncc(-c2cc(F)c3c(c2)OC(c2ccc(C(C)C)s2)n2c-3cc3cc(-c4cnc([C@@H]5CCCN5C(=O)[C@@H](NC(=O)OC)C(C)C)[nH]4)ccc32)[nH]1)C(C)C (single isomer, unassigned) [Compound 36] | 1.1 pM | – | 1.7 pM | – | – | IC50 (HCV replicon 1AQ30D; replicon 1AQ30D, read-out: 1A Q30D IC50): 0.19 nM; IC50 (HCV replicon 1AY93H; replicon 1AY93H, read-out: 1A Y93H IC50): 0.006 nM; IC50 (HCV replicon 2B; replicon 2B, read-out: 2B IC50): 0.053 nM
COC(=O)N[C@H](C(=O)N1CCC[C@@H]1c1ncc(-c2cc(F)c3c(c2)OC(c2ccc(C(C)C)s2)n2c-3cc3cc(-c4c[nH]c([C@@H]5C[C@@H]6C[C@@H]6N5C(=O)[C@H](NC(=O)OC)C5C[C@@H](C)O[C@@H](C)C5)n4)ccc32)[nH]1)C(C)C (stereo partly drawn) [Compound 284] | – | – | – | – | – | IC50 (HCV replicon 1B; Hepatitis C virus, replicon 1B): 2.1 pM; IC50 (HCV replicon 1AQ30D; [7]): 0.021 nM; IC50 (HCV replicon 1A; Hepatitis C virus, replicon 1A): 1.8 pM; IC50 (HCV replicon 1AY93H; [8]): 0.002 nM; IC50 (HCV replicon 2B; [9]): 0.024 nM
COC(=O)N[C@H](C(=O)N1CCC[C@H]1c1ncc(-c2cc(F)c3c(c2)OC(c2ccc(C#N)s2)n2c-3cc3cc(-c4cnc([C@@H]5CCCN5C(=O)[C@@H](NC(=O)OC)C(C)C)[nH]4)ccc32)[nH]1)C(C)C (single isomer, unassigned) [Compound 17] | – | 2.91 nM | – | 0.19 nM | 0.54 nM | IC50 (HCV replicon 1B; Hepatitis C virus, replicon 1B): 2.1 pM; IC50 (HCV replicon 1A; Hepatitis C virus, replicon 1A): 2.6 pM
COC(=O)N[C@H](C(=O)N1CCC[C@H]1c1ncc(-c2ccc3c(c2)OC(c2ccc(C4CC4)s2)n2c-3cc3cc(-c4cnc([C@@H]5CCCN5C(=O)[C@@H](NC(=O)OC)C5CCOCC5)[nH]4)ccc32)[nH]1)C(C)C (single isomer, unassigned) [Compound 335] | – | – | 2.5 pM | 0.0052 nM | 0.004 nM | IC50 (HCV replicon 1B; Hepatitis C virus, replicon 1B): 1.2 pM; IC50 (HCV replicon 1AQ30D; [7]): 0.0639 nM
CCc1ccc(C2Oc3cc(-c4cnc([C@@H]5CCCN5C(=O)[C@@H](NC(=O)OC)C(C)C)[nH]4)cc(F)c3-c3cc4cc(-c5cnc([C@@H]6CCCN6C(=O)[C@@H](NC(=O)OC)C(C)C)[nH]5)ccc4n32)s1 (single isomer, unassigned) [Compound 3] | – | – | – | – | – | IC50 (HCV replicon 1B; Hepatitis C virus, replicon 1B): 1.2 pM; IC50 (HCV replicon 1AQ30D; [7]): 50.6 nM; IC50 (HCV replicon 1A; Hepatitis C virus, replicon 1A): 3.6 pM; IC50 (HCV replicon 1AY93H; [8]): 4.7 nM; IC50 (HCV replicon 2B; [9]): 4.45 nM
CCc1ccc(C2Oc3cc(-c4cnc([C@@H]5CCCN5C(=O)[C@@H](NC(=O)OC)C(C)C)[nH]4)cc(F)c3-c3cc4cc(-c5cnc([C@@H]6CCCN6C(=O)[C@@H](NC(=O)OC)C6CCOCC6)[nH]5)ccc4n32)s1 (single isomer, unassigned) [Compound 337] | 1.6 pM | 0.0266 nM | 1.6 pM | 0.0021 nM | 0.0039 nM | –
CCCc1ccc(C2Oc3cc(-c4cnc([C@@H]5CCCN5C(=O)[C@@H](NC(=O)OC)C(C)C)[nH]4)cc(F)c3-c3cc4cc(-c5cnc([C@@H]6CCCN6C(=O)C(NC(=O)OC)C6C[C@@H](C)O[C@@H](C)C6)[nH]5)ccc4n32)s1 (single isomer, unassigned) [Compound 370] | 2 pM | 0.0454 nM | 1.4 pM | 0.0022 nM | 0.0066 nM | –
COC(=O)NC(C(=O)N1CCC[C@H]1c1ncc(-c2ccc3c(c2)cc2n3C(c3ccc(C4CC4)s3)Oc3cc(-c4cnc([C@@H]5CCCN5C(=O)[C@@H](NC(=O)OC)C(C)C)[nH]4)cc(F)c3-2)[nH]1)C1C[C@@H](C)O[C@@H](C)C1 (stereo partly drawn) [Compound 208] | – | – | – | – | – | IC50 (HCV replicon 1B; Hepatitis C virus, replicon 1B): 3.2 pM; IC50 (HCV replicon 1AQ30D; [7]): 0.043 nM; IC50 (HCV replicon 1A; Hepatitis C virus, replicon 1A): 3.1 pM; IC50 (HCV replicon 1AY93H; [8]): 0.008 nM; IC50 (HCV replicon 2B; [9]): 0.005 nM
CCc1ccc(C2Oc3cc(-c4cnc([C@@H]5CCCN5C(=O)[C@@H](NC(=O)OC)C(C)C)[nH]4)cc(F)c3-c3cc4cc(-c5cnc([C@@H]6C[C@H]7C[C@H]7N6C(=O)C(NC(=O)OC)C6CCOC(C)(C)C6)[nH]5)ccc4n32)s1 (single isomer, unassigned) [Compound 201] | 2.2 pM | 0.015 nM | 1.5 pM | 0.002 nM | 0.008 nM | –
COC(=O)NC(C(=O)N1[C@@H]2C[C@@H]2C[C@H]1c1ncc(-c2ccc3c(c2)c(F)c2n3C(c3ccc(C4CC4)s3)Oc3cc(-c4cnc([C@@H]5CCCN5C(=O)[C@@H](NC(=O)OC)C(C)C)[nH]4)ccc3-2)[nH]1)C1C[C@@H](C)O[C@@H](C)C1 (single isomer, unassigned) [Compound 645] | – | – | – | – | – | IC50 (HCV replicon 1B; HCV replicon 1B): 2.4 pM; IC50 (HCV replicon 1AQ30D; [10]): 0.25 nM; IC50 (HCV replicon 1A; HCV replicon 1A): 2.6 pM; IC50 (HCV replicon 1AY93H; [5]): 0.0222 nM; IC50 (HCV replicon 2B; [6]): 0.0686 nM
COC(=O)NC(C(=O)N1CCC[C@H]1c1ncc(-c2ccc3c(c2)cc2n3C(c3ccc(C4CCCC4)s3)Oc3cc(-c4cnc([C@@H]5CCCN5C(=O)[C@@H](NC(=O)OC)C(C)C)[nH]4)cc(F)c3-2)[nH]1)C1C[C@@H](C)O[C@@H](C)C1 (single isomer, unassigned) [Compound 656] | – | – | – | – | – | IC50 (HCV replicon 1B; HCV replicon 1B): 2.8 pM; IC50 (HCV replicon 1AQ30D; [10]): 0.0481 nM; IC50 (HCV replicon 1A; HCV replicon 1A): 1.5 pM; IC50 (HCV replicon 1AY93H; [5]): 0.0025 nM; IC50 (HCV replicon 2B; [6]): 0.0026 nM
COC(=O)N[C@H](C(=O)N1CCC[C@@H]1c1ncc(-c2cc(F)c3c(c2)OC(c2ccc(C(C)C)s2)n2c-3cc3cc(-c4c[nH]c([C@@H]5CCCN5C(=O)[C@H](NC(=O)OC)C5C[C@@H](C)O[C@@H](C)C5)n4)ccc32)[nH]1)C(C)C (stereo partly drawn) [Compound 240] | 2.7 pM | 0.062 nM | 2.1 pM | 0.005 nM | 0.011 nM | –
COC(=O)N[C@H](C(=O)N1CCC[C@H]1c1nc(-c2cc(F)c3c(c2)OC(c2ccc(C)s2)n2c-3cc3cc(-c4cnc([C@@H]5CCCN5C(=O)[C@@H](NC(=O)OC)C5CCOCC5)[nH]4)ccc32)c[nH]1)C(C)C (stereo partly drawn) [Compound 59] | 3.5 pM | 0.018 nM | 1.3 pM | 0.004 nM | 0.007 nM | –
